Measurements as given in patent US12162850B2, “Formulations” (Betagenon AB, priority 2019, dated 2024).

Legend:
[1] = Single dose oral pharmacokinetic studies in rabbits; assay type: in vivo, male New Zealand White rabbits; conditions: for AUCextrap / AUC(0-inf) / AUC(0-t) / Cmax / MRT last / Tmax / half-life: 90 mg/kg b.w. oral single dose
Description: The studies detailed below (and referred to as Examples 2 to 8) were conducted to provide comparative single dose oral pharmacokinetics data for Compound 1, as well as sodium and potassium salts of that compound, using non-coated and enteric-coated capsules in male New Zealand White rabbits.
Compound 1 was made using the process described in WO 2011/004162 and milled as described for Example 1c. The non-coated or enteric coated gelatin capsules were individually filled with 180 mg of dry-milled Compound 1 together with accompanying excipients as indicated. Both capsule types were filled with Compound 1 together with 1.8 mg of sodium docusate, 0.18 mg of PVP K30 and 9 mg of mannitol.
Similarly, Compound 2, non-coated or enteric coated gelatin capsules were individually filled with 180 mg of dry-milled Compound 2 (as obtained in Example 1f) together with 1.8 mg of sodium docusate, 0.18 mg of PVP K30 and 9 mg of mannitol.
For Compound 3, non-coated or enteric coated gelatin capsules were individually filled with 90 mg of dry-milled Compound 3 (as obtained in Example 1i) together with 0.90 mg of sodium docusate, 0.09 mg of PVP K30 and 4.50 mg of mannitol.
40 mL of the 2% w/v methyl cellulose solution was added to a 250 mL conical flask together with 10 g of 2 mm glass beads, and vigorously stirred. Compound 1 (720 mg) was slowly added to the solution and the mixture was with continuously stirred for 1 h. The homogenate was transferred to separate flask and its pH recorded. The suspension formulation was prepared before administration to the animals.
Adult healthy male New Zealand white rabbits aged approximately 2 to 3 months old were used for experimentation after 7 days of acclimatization.
To dose the filled capsules, a soft plastic dosing tube was used. The filled capsule was inserted into the dosing tube so that the short end of the capsule protrudes slightly from the tip of the tube. The tip of the capsule was dipped in mineral oil to aid swallowing.
To dose the suspension, an infant feeding tube was used. The feeding tube was inserted through the mouth of the rabbit to the oesophagus and the stomach, and ascertained that it has not been placed in the trachea before dosing to the animals. The suspension of the Compound 1 was administered through the feeding tube. After the administration of the suspension, drinking water of approximately 2.0-2.5 mL was administered to flush out the contents in the feeding tube.
The animals were restrained in a rabbit restrainer and blood samples (400-500 μL/time point) were collected via the central ear artery at 0.16, 0.25, 0.50, 1.0, 2.0, 4.0, 6.0, 8.0, 24.0, 48.0 and 72 hours post-dosing. Collected blood specimens were centrifuged at 4000 or 6000 rpm, 4° C. for 10 minutes and plasma samples were separated and stored at −80° C. until analysis.
Concentrations of the analyte of Compound 1 in New Zealand white rabbits was determined using an API 3200 Q-trap LC-MS/MS system.
Chromatographic separation was achieved on Zorbax C18, 50×4.6 mm, 5 μm column with methanol-0.1% formic acid as mobile phase with gradient elution. The flow rate was set at 1.0 mL min^−1. Detection was accomplished by a triple-quadrupole tandem mass spectrometer in multiple-reaction monitoring (MRM) scanning via electrospray ionization source, applied in the positive mode. The optimised mass transition ion-pairs for quantitation were m/z 379.999→125.000 for the compound 1 and m/z 376.165→165.00 for the ISD (Haloperidol). Calibration plots were linear over the range of 11.062 to 20594.820 ng/mL.
The data of plasma concentration to respective time points for the analyte Compound 1 were used for the pharmacokinetic analysis. Pharmacokinetic analysis was performed using non-compartmental analysis (NCA) module of Phoenix WinNonlin 6.3 software to determine the following pharmacokinetic parameters: • Cmax • Tmax • AUC0-t • AUC0-∞ • T1/2 • MRT […]

[2] = Particle size analysis of dry-milled products (laser diffraction, Shimadzu SALD-2300); assay type: physicochemical
Description: Milling was performed for Examples 1a to 1c using an air jet mill (Equipment code: CP-AJM-01; Promas engineers) with the following parameters: Micronisation was repeated in all examples by performing the air jet milling for a second time using the same parameters. This allowed the particle size D90 to be reduced to less than 10 μm. [table] Four drops of Tween 20 were added to 25 mL of water and the mixture was sonicated for 3 minutes to form the dispersant solution. 0.05 g of milled material was transferred into a 250 mL glass beaker. 25 mL of the dispersant solution (Tween 20/water mixture) was added to the beaker with continuous swirling for 2 to 3 minutes. The suspension was transferred into the measuring unit and the particle size distribution measurements were conducted in triplicate.

[3] = male, New Zealand White, rabbit, plasma, po, 90 mg/kg, enteric coated capsule, 90 mg/kg b.w. oral
[4] = male, New Zealand White, rabbit, plasma, po, 90 mg/kg, non-coated capsule, 90 mg/kg b.w. oral
[5] = male, New Zealand White, rabbit, plasma, po, 90 mg/kg, standard suspension, 90 mg/kg b.w. oral
[6] = male, New Zealand White, rabbit, plasma, po, 90 mg/kg, enteric coated capsule, rabbit plasma (Examples 5, 6, 7)
[7] = male, New Zealand White, rabbit, plasma, po, 90 mg/kg, non-coated capsule, rabbit plasma (Examples 2, 3, 4)
[8] = male, New Zealand White, rabbit, plasma, po, 90 mg/kg, standard suspension (2% w/v methylcellulose), rabbit plasma (Example 8)
[9] = after 1st milling (air jet mill)
[10] = after 2nd milling (air jet mill)

## O=C(Nc1nc(=O)n(Cc2ccc(Cl)cc2)s1)c1ccc(Cl)cc1 [Compound 1, 4-Chloro-N-[2-[(4-chlorophenyl)methyl]-3-oxo-1,2,4-thiadiazol-5-yl]benzamide]
[1]; 0.16 h, non-coated capsule, 90 mg/kg b.w. oral, rabbit
  Plasma concentration, mean: 0.000 ng/mL
[1]; 0.25 h, non-coated capsule, 90 mg/kg b.w. oral, rabbit
  Plasma concentration, mean: 0.000 ng/mL
[1]; 0.50 h, non-coated capsule, 90 mg/kg b.w. oral, rabbit
  Plasma concentration, mean: 50.474 ng/mL
[1]; 1.00 h, enteric coated capsule, 90 mg/kg b.w. oral, rabbit
  Plasma concentration, mean: 0.000 ng/mL
[1]; 1.00 h, non-coated capsule, 90 mg/kg b.w. oral, rabbit
  Plasma concentration, mean: 386.171 ng/mL
[1]; 2.00 h, enteric coated capsule, 90 mg/kg b.w. oral, rabbit
  Plasma concentration, mean: 5.857 ng/mL
[1]; 2.00 h, non-coated capsule, 90 mg/kg b.w. oral, rabbit
  Plasma concentration, mean: 1530.898 ng/mL
[1]; 4.00 h, enteric coated capsule, 90 mg/kg b.w. oral, rabbit
  Plasma concentration, mean: 206.003 ng/mL
[1]; 6.00 h, enteric coated capsule, 90 mg/kg b.w. oral, rabbit
  Plasma concentration, mean: 307.917 ng/mL
[1]; 6.00 h, non-coated capsule, 90 mg/kg b.w. oral, rabbit
  Plasma concentration, mean: 25336.370 ng/mL
[1]; 8.00 h, enteric coated capsule, 90 mg/kg b.w. oral, rabbit
  Plasma concentration, mean: 1505.092 ng/mL
[1]; 24.00 h, enteric coated capsule, 90 mg/kg b.w. oral, rabbit
  Plasma concentration, mean: 45705.076 ng/mL
[1]; 72.00 h, non-coated capsule, 90 mg/kg b.w. oral, rabbit
  Plasma concentration, mean: 35657.688 ng/mL
[1]; enteric coated capsule, rabbit plasma (Examples 5, 6, 7)
  AUCextrap: 82.44 ± 9.84%
[1]; [3]
  concentration at 0 h: 0 ng/mL
  concentration at 48 h: 59700 ng/mL
[1]; [4]
  concentration at 0 h: 0 ng/mL
  concentration at 48 h: 54800 ng/mL
[1]; [5]
  concentration at 0 h: 0 ng/mL
  concentration at 48 h: 8830 ng/mL
[1]; male, New Zealand White, rabbit, plasma, po, 90 mg/kg, 0.16 h, enteric coated capsule, 90 mg/kg b.w. oral
  concentration at 0.16 h: 0 ng/mL
[1]; male, New Zealand White, rabbit, plasma, po, 90 mg/kg, 0.16 h, standard suspension, 90 mg/kg b.w. oral
  concentration at 0.16 h: 1210 ng/mL
[1]; male, New Zealand White, rabbit, plasma, po, 90 mg/kg, 0.25 h, enteric coated capsule, 90 mg/kg b.w. oral
  concentration at 0.25 h: 0 ng/mL
[1]; male, New Zealand White, rabbit, plasma, po, 90 mg/kg, 0.25 h, standard suspension, 90 mg/kg b.w. oral
  concentration at 0.25 h: 4420 ng/mL
[1]; male, New Zealand White, rabbit, plasma, po, 90 mg/kg, 0.50 h, enteric coated capsule, 90 mg/kg b.w. oral
  concentration at 0.5 h: 0 ng/mL
[1]; male, New Zealand White, rabbit, plasma, po, 90 mg/kg, 0.50 h, standard suspension, 90 mg/kg b.w. oral
  concentration at 0.5 h: 7250 ng/mL
[1]; male, New Zealand White, rabbit, plasma, po, 90 mg/kg, 1.00 h, standard suspension, 90 mg/kg b.w. oral
  concentration at 1 h: 9390 ng/mL
[1]; male, New Zealand White, rabbit, plasma, po, 90 mg/kg, 2.00 h, standard suspension, 90 mg/kg b.w. oral
  concentration at 2 h: 10100 ng/mL
[1]; male, New Zealand White, rabbit, plasma, po, 90 mg/kg, 4.00 h, non-coated capsule, 90 mg/kg b.w. oral
  concentration at 4 h: 13400 ng/mL
[1]; male, New Zealand White, rabbit, plasma, po, 90 mg/kg, 4.00 h, standard suspension, 90 mg/kg b.w. oral
  concentration at 4 h: 11600 ng/mL
[1]; male, New Zealand White, rabbit, plasma, po, 90 mg/kg, 6.00 h, standard suspension, 90 mg/kg b.w. oral
  concentration at 6 h: 139000 ng/mL
[1]; male, New Zealand White, rabbit, plasma, po, 90 mg/kg, 8.00 h, non-coated capsule, 90 mg/kg b.w. oral
  concentration at 8 h: 39200 ng/mL
[1]; male, New Zealand White, rabbit, plasma, po, 90 mg/kg, 8.00 h, standard suspension, 90 mg/kg b.w. oral
  concentration at 8 h: 28700 ng/mL
[1]; male, New Zealand White, rabbit, plasma, po, 90 mg/kg, 24.00 h, non-coated capsule, 90 mg/kg b.w. oral
  concentration at 24 h: 63600 ng/mL
[1]; male, New Zealand White, rabbit, plasma, po, 90 mg/kg, 24.00 h, standard suspension, 90 mg/kg b.w. oral
  concentration at 24 h: 18400 ng/mL
[1]; male, New Zealand White, rabbit, plasma, po, 90 mg/kg, 72.00 h, enteric coated capsule, 90 mg/kg b.w. oral
  concentration at 72 h: 52300 ng/mL
[1]; male, New Zealand White, rabbit, plasma, po, 90 mg/kg, 72.00 h, standard suspension, 90 mg/kg b.w. oral
  concentration at 72 h: 3030 ng/mL
[1]; [6]
  AUC(0-inf): 18600 ± 12800 µg·h/mL
  AUC(0-t): 2990 ± 666 µg·h/mL
  Cmax: 60800 ± 15700 ng/mL
  MRT last: 45.2 ± 2.54 h
  Tmax: 40 ± 13.9 h
  half-life: 252 ± 133 h
[1]; [7]
  AUC(0-inf): 7390 ± 3870 µg·h/mL
  AUC(0-t): 3450 ± 405 µg·h/mL
  Cmax: 63700 ± 3790 ng/mL
  MRT last: 36.9 ± 2.56 h
  Tmax: 32 ± 13.9 h
  half-life: 68.2 ± 43 h
[1]; [8]
  AUC(0-inf): 1120 µg·h/mL
  AUC(0-t): 952 ± 175 µg·h/mL
  Cmax: 31200 ± 11500 ng/mL
  MRT last: 25 ± 5 h
  Tmax: 19 ± 9 h
  half-life: 36 ± 8 h
[1]; non-coated capsule, rabbit plasma (Examples 2, 3, 4)
  AUCextrap: 46.71 ± 19.06%
[1]; standard suspension (2% w/v methylcellulose), rabbit plasma (Example 8)
  AUCextrap: 14 ± 9%
[2]; [9]
  Particle size distribution D10: 1.8 μm
  Particle size distribution D50: 5.0 μm
  Particle size distribution D90: 11.4 μm
  Particle size distribution D100: 33.7 μm
[2]; [10]
  Particle size distribution D10: 1.2 μm
  Particle size distribution D50: 3.7 μm
  Particle size distribution D90: 8.3 μm
  Particle size distribution D100: 21.4 μm
[2]; before milling
  Particle size distribution D10: 13.5 μm
  Particle size distribution D50: 28.0 μm
  Particle size distribution D90: 55.2 μm
  Particle size distribution D100: 187.0 μm
